Assay results: the supplement of paper PMC10307832

What was measured:
Test in all cases: relative viability (nuclei count vs DMSO), 5 days (fraction); higher = more cells survive
RERF-LC-KJ = system: RERF-LC-KJ
Method in brief: (§1)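 Lung cancer cell lines, seeded in 1536-well plates, were treated the following day by pin tool with a single drug or with five library-drug doses (not always all listed) in √10 steps on top of a fixed anchor-drug dose. Cells were fixed and nuclei stained in one step after 5 days, and nuclei were counted. Relative viability is the nuclei count for treated wells divided by that for vehicle wells, reported as medians of duplicate plates.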

HCC-15 = system: HCC-15
Method in brief: as §1

NCI-H2347 = system: NCI-H2347
Method in brief: as §1

HCC-366 = system: HCC-366
Method in brief: as §1

NCI-H1437 = system: NCI-H1437
Method in brief: as §1

PC-14 = system: PC-14
Method in brief: as §1

NCI-H460 = system: NCI-H460
Method in brief: as §1

H3255 = system: H3255
Method in brief: as §1

SW 900 = system: SW 900
Method in brief: as §1

NCI-H727 = system: NCI-H727
Method in brief: as §1

NCI-H1648 = system: NCI-H1648
Method in brief: as §1

ABC-1 = system: ABC-1
Method in brief: as §1

HARA = system: HARA
Method in brief: as §1

COR-L 105 = system: COR-L 105
Method in brief: as §1

NCI-H1915 = system: NCI-H1915
Method in brief: as §1

NCI-H838 = system: NCI-H838
Method in brief: as §1

NCI-H1944 = system: NCI-H1944
Method in brief: as §1

LU99A = system: LU99A
Method in brief: as §1

NCI-H1734 = system: NCI-H1734
Method in brief: as §1

NCI-H1666 = system: NCI-H1666
Method in brief: as §1

LC-2-ad = system: LC-2-ad
Method in brief: as §1

NCI-H650 = system: NCI-H650
Method in brief: as §1

CAL-12T = system: CAL-12T
Method in brief: as §1

Oc1nc(-c2ccc(C(F)(F)F)cc2)nc2c1CSCC2 [XAV939] + O=C(CCCCCCC(=O)Nc1ccccc1)NO [Vorinostat] (partner 1 µM)
relative viability (RERF-LC-KJ; first compound 0.08 µM): 0.707
relative viability (RERF-LC-KJ; first compound 0.253 µM): 0.609
relative viability (RERF-LC-KJ; first compound 0.8 µM): 0.643
relative viability (RERF-LC-KJ; first compound 2.53 µM): 0.368
relative viability (HCC-15; first compound 0.08 µM): 0.824
relative viability (HCC-15; first compound 0.253 µM): 0.742
relative viability (HCC-15; first compound 0.8 µM): 0.837
relative viability (HCC-15; first compound 2.53 µM): 0.692
relative viability (NCI-H2347; first compound 0.08 µM): 0.609
relative viability (NCI-H2347; first compound 0.253 µM): 0.496
relative viability (NCI-H2347; first compound 0.8 µM): 0.593
relative viability (NCI-H2347; first compound 2.53 µM): 0.414
relative viability (HCC-366; first compound 0.08 µM): 0.398
relative viability (HCC-366; first compound 0.253 µM): 0.25
relative viability (HCC-366; first compound 0.8 µM): 0.293
relative viability (HCC-366; first compound 2.53 µM): 0.189
relative viability (NCI-H1437; first compound 0.08 µM): 0.834
relative viability (NCI-H1437; first compound 0.253 µM): 0.649
relative viability (NCI-H1437; first compound 0.8 µM): 0.62
relative viability (NCI-H1437; first compound 2.53 µM): 0.477
relative viability (PC-14; first compound 0.08 µM): 0.96
relative viability (PC-14; first compound 0.253 µM): 0.622
relative viability (PC-14; first compound 0.8 µM): 0.789
relative viability (PC-14; first compound 2.53 µM): 0.598
relative viability (NCI-H460; first compound 0.08 µM): 0.943
relative viability (NCI-H460; first compound 0.253 µM): 0.46
relative viability (NCI-H460; first compound 0.8 µM): 0.649
relative viability (NCI-H460; first compound 2.53 µM): 0.433
relative viability (H3255; first compound 0.08 µM): 0.809
relative viability (H3255; first compound 0.253 µM): 0.692
relative viability (H3255; first compound 0.8 µM): 0.648
relative viability (H3255; first compound 2.53 µM): 0.712
relative viability (SW 900; first compound 0.253 µM): 0.528
relative viability (SW 900; first compound 0.8 µM): 0.494
relative viability (SW 900; first compound 2.53 µM): 0.373
relative viability (NCI-H727; first compound 0.08 µM): 1.25
relative viability (NCI-H727; first compound 0.8 µM): 1
relative viability (NCI-H727; first compound 2.53 µM): 1.02
relative viability (NCI-H1648; first compound 0.253 µM): 0.522
relative viability (NCI-H1648; first compound 0.8 µM): 0.315
relative viability (NCI-H1648; first compound 2.53 µM): 0.285
relative viability (ABC-1; first compound 0.253 µM): 0.767
relative viability (ABC-1; first compound 0.8 µM): 1.12
relative viability (ABC-1; first compound 2.53 µM): 0.568
relative viability (HARA; first compound 0.08 µM): 0.529
relative viability (HARA; first compound 0.253 µM): 0.511
relative viability (HARA; first compound 0.8 µM): 0.648
relative viability (HARA; first compound 2.53 µM): 0.535
relative viability (COR-L 105; first compound 0.08 µM): 0.85
relative viability (COR-L 105; first compound 0.253 µM): 0.659
relative viability (COR-L 105; first compound 0.8 µM): 0.719
relative viability (COR-L 105; first compound 2.53 µM): 0.65
relative viability (NCI-H1915; first compound 0.08 µM): 0.603
relative viability (NCI-H1915; first compound 0.253 µM): 0.51
relative viability (NCI-H1915; first compound 0.8 µM): 0.5
relative viability (NCI-H1915; first compound 2.53 µM): 0.498
relative viability (NCI-H838; first compound 0.08 µM): 0.685
relative viability (NCI-H838; first compound 0.253 µM): 0.609
relative viability (NCI-H838; first compound 0.8 µM): 0.658
relative viability (NCI-H838; first compound 2.53 µM): 0.558
relative viability (NCI-H1944; first compound 0.08 µM): 0.55
relative viability (NCI-H1944; first compound 0.253 µM): 0.625
relative viability (NCI-H1944; first compound 0.8 µM): 0.508
relative viability (NCI-H1944; first compound 2.53 µM): 0.354
relative viability (LU99A; first compound 0.08 µM): 0.454
relative viability (LU99A; first compound 0.253 µM): 0.598
relative viability (LU99A; first compound 0.8 µM): 0.507
relative viability (LU99A; first compound 2.53 µM): 0.43
relative viability (NCI-H1734; first compound 0.08 µM): 0.98
relative viability (NCI-H1734; first compound 0.253 µM): 0.835
relative viability (NCI-H1734; first compound 0.8 µM): 0.757
relative viability (NCI-H1734; first compound 2.53 µM): 0.803
relative viability (NCI-H1666; first compound 0.08 µM): 0.978
relative viability (NCI-H1666; first compound 0.253 µM): 0.889
relative viability (NCI-H1666; first compound 0.8 µM): 0.906
relative viability (NCI-H1666; first compound 2.53 µM): 1.15
relative viability (LC-2-ad; first compound 0.08 µM): 0.735
relative viability (LC-2-ad; first compound 0.253 µM): 0.689
relative viability (LC-2-ad; first compound 0.8 µM): 0.705
relative viability (LC-2-ad; first compound 2.53 µM): 0.567
relative viability (NCI-H650; first compound 0.08 µM): 0.461
relative viability (NCI-H650; first compound 0.253 µM): 0.345
relative viability (NCI-H650; first compound 0.8 µM): 0.506
relative viability (NCI-H650; first compound 2.53 µM): 0.368
relative viability (CAL-12T; first compound 0.08 µM): 0.984
relative viability (CAL-12T; first compound 0.253 µM): 0.483
relative viability (CAL-12T; first compound 0.8 µM): 0.823
relative viability (CAL-12T; first compound 2.53 µM): 0.381
